Measured values taken from ChEMBL document CHEMBL4382257, “Identification and Profiling of Hydantoins-A Novel Class of Potent Antimycobacterial DprE1 Inhibitors” (J Med Chem, 2018).

Legend:
physchem = conditions: buffer, pH 7.4, logD
[1] = Intrinsic clearance in human liver microsomes at 0.5 uM after 30 mins in presence of NADPH by LC-MS/MS analysis; type: ADME, Microsome; conditions: 0.5 h
[2] = Intrinsic clearance in mouse liver microsomes at 0.5 uM after 30 mins in presence of NADPH by LC-MS/MS analysis; type: ADME, Microsome; conditions: 0.5 h

| Structure (SMILES) | chromatographic logD (physchem) | CLH [1] | CLH [2] |
| --- | --- | --- | --- |
| CC1(c2ccc(-n3ccnc3)cc2)NC(=O)N(CC(=O)c2ccc(F)cc2F)C1=O (stereo unspecified) | 3.84 | – | – |
| CCC1(c2ccc(C#N)cc2)NC(=O)N(CC(=O)c2ccc(F)cc2F)C1=O (stereo unspecified) | 4.99 | – | – |
| CC1(c2ccc(Cl)cc2)NC(=O)N(Cc2ccc(F)cc2)C1=O (stereo unspecified) | 5.59 | – | – |
| CC1(c2ccc(OC(F)F)cc2)NC(=O)N(CC(=O)c2ccccn2)C1=O (stereo unspecified) | 4.35 | – | – |
| CC1(c2ccc(OC(F)F)cc2)NC(=O)N(CC(=O)c2cccs2)C1=O (stereo unspecified) | 4.59 | – | – |
| N#Cc1ccc(-c2cnn(CC(=O)c3ccc(F)cc3F)c2)cc1 | 5.17 | – | – |
| COc1ccc(C2(C)NC(=O)N(CC(=O)c3ccc(F)cc3F)C2=O)c(F)c1 (stereo unspecified) | 5.05 | – | – |
| CC1(c2cccc(C#N)c2)NC(=O)N(CC(=O)c2ccc(F)cc2F)C1=O (stereo unspecified) | 4.51 | – | – |
| CC1(c2ccc(C#N)s2)NC(=O)N(CC(=O)c2ccc(F)cc2F)C1=O (stereo unspecified) | 4.67 | – | – |
| CC1(c2ccc(OC(F)F)cc2)NC(=O)N(CC(=O)c2ccncc2)C1=O (stereo unspecified) | 3.52 | – | – |
| CC1(c2ccc(Cl)cc2)NC(=O)N(CCC(=O)c2ccc(F)cc2)C1=O (stereo unspecified) | 5.35 | – | – |
| CC1(c2ccc(Br)cn2)NC(=O)N(CC(=O)c2ccc(F)cc2F)C1=O (stereo unspecified) | 4.87 | – | – |
| CC1(c2ccc(Br)cc2)CC(=O)N(CC(=O)c2ccc(F)cc2F)C1=O (stereo unspecified) | 6.86 | – | – |
| C[C@@]1(c2ccc(C#N)cc2)NC(=O)N(CC(=O)c2ccc(F)cc2F)C1=O | 4.51 | – | – |
| CC1(c2ccc(C(F)(F)F)cc2)NC(=O)N(CC(=O)c2ccc(F)cc2F)C1=O (stereo unspecified) | 6.01 | – | – |
| C[C@]1(c2ccc(C#N)cc2)NC(=O)N(CC(=O)c2ccc(F)cc2F)C1=O | 4.51 | – | – |
| COc1ccc(C2(C)CN(CC(=O)c3ccc(F)cc3F)C(=O)N2)cc1 (stereo in doubt; 151a) | 4.72 | – | – |
| CC1(c2cccc(NS(C)(=O)=O)c2)NC(=O)N(CC(=O)c2ccc(F)cc2F)C1=O (stereo unspecified) | 3.67 | – | – |
| COc1ccc(C2(C)NC(=O)N(CCC(=O)c3ccc(F)cc3)C2=O)cc1 (stereo unspecified) | 4.6 | – | – |
| CC1(c2ccc(OC(F)F)cc2)NC(=O)N(CC(=O)c2ccccc2)C1=O (stereo unspecified) | 4.97 | – | – |
| CC1(c2ccc(C#N)nc2)NC(=O)N(CC(=O)c2ccc(F)cc2F)C1=O (stereo unspecified) | 3.94 | – | – |
| CC(=O)Nc1ccc(C2(C)NC(=O)N(CC(=O)c3ccc(F)cc3F)C2=O)cc1 (stereo unspecified) | 3.28 | – | – |
| CC1(c2ccc(C#N)cc2)NC(=O)N(CC(=O)c2ncc(F)cc2F)C1=O (stereo unspecified) | 3.89 | – | – |

| Structure (SMILES) | chromatographic logD (physchem) | CLH [1] | CLH [2] |
| --- | --- | --- | --- |
| CC1(c2ccc(Br)cc2)CCN(CC(=O)c2ccc(F)cc2F)C1=O (stereo unspecified) | 6.74 | – | – |
| CC(C)C1(c2ccc(Br)cc2)NC(=O)N(CC(=O)c2ccc(F)cc2F)C1=O (stereo unspecified) | 6.57 | – | – |
| O=C(CN1C(=O)NC2(CCc3cc(Br)ccc32)C1=O)c1ccc(F)cc1F (stereo unspecified) | 5.71 | – | – |
| CC1(c2ccc(OC(F)F)cc2)NC(=O)N(CC(=O)c2ccc(Cl)s2)C1=O (stereo unspecified) | 5.49 | – | – |
| Cc1ccc(C)c(C(=O)CN2C(=O)NC(C)(c3ccc(OC(F)F)cc3)C2=O)c1 (stereo unspecified) | 5.97 | – | – |
| CC1(c2ccc(C#N)cc2)NC(=O)N(CC(=NO)c2ccc(F)cc2F)C1=O (stereo in doubt; 43b) | 3.59 | – | – |
| COc1ccc(C2(C)NC(=O)N(C(=O)c3ccc(F)cc3F)C2=O)cc1 (stereo unspecified) | 3.43 | – | – |
| CC1(c2ccc(OC(F)(F)F)cc2)NC(=O)N(CC(=O)c2ccc(F)cc2F)C1=O (stereo unspecified) | 6.05 | – | – |
| COc1cc(C2(C)NC(=O)N(CC(=O)c3ccc(F)cc3F)C2=O)ccc1OC(F)F (stereo unspecified) | 5.5 | – | – |
| CC1(c2ccc(Br)nc2)NC(=O)N(CC(=O)c2ccc(F)cc2F)C1=O (stereo unspecified) | 4.67 | – | – |
| CC1(c2ccc(C#N)cc2)NC(=O)N(CC(=O)c2nccs2)C1=O (stereo unspecified) | 3.42 | – | – |
| CC1(c2ccc(Cl)cc2)NC(=O)N(CC(=O)c2ccc(F)cc2)C1=O (stereo unspecified) | 5.28 | – | – |
| COc1ccc(C(=O)CN2C(=O)NC(C)(c3ccc(OC(F)F)cc3)C2=O)cc1 (stereo unspecified) | 4.92 | – | – |
| COc1ccc(-c2cn(CC(=O)c3ccc(F)cc3F)cn2)cc1 | 4.68 | – | – |
| CC1(c2ccc(Cl)cc2)NC(=O)N(C(=O)c2ccc(F)cc2F)C1=O (stereo unspecified) | 3.72 | – | – |
| CC1(c2ccc(OC(F)F)cc2)NC(=O)N(CC(=O)c2ccc[nH]2)C1=O (stereo unspecified) | 3.91 | – | – |
| COc1ccc(C2(C)NC(=O)N(Cc3ccc(F)cc3)C2=O)cc1 (stereo unspecified) | 4.72 | – | – |
| Cc1ccc(C(=O)CN2C(=O)NC(C)(c3ccc(OC(F)F)cc3)C2=O)s1 (stereo unspecified) | 5.06 | – | – |
| Cc1ccc(C2(C)NC(=O)N(CC(=O)c3ccc(F)cc3F)C2=O)cc1 (stereo unspecified) | 5.41 | – | – |
| Cc1cc(C(=O)CN2C(=O)NC(C)(c3ccc(OC(F)F)cc3)C2=O)c(C)[nH]1 (stereo unspecified) | 4.12 | – | – |
| CC(=O)N1C(=O)N(CC(=O)c2ccc(F)cc2F)C(=O)C1(C)c1ccc(C#N)cc1 (stereo unspecified) | 5.77 | – | – |
| CC1(c2ccc(OC(F)F)cc2)NC(=O)N(CC(=O)N2CCCCC2)C1=O (stereo unspecified) | 4.03 | – | – |
| O=C(CN1C(=O)NC(c2ccc(Br)cc2)(C(F)(F)F)C1=O)c1ccc(F)cc1F (stereo unspecified) | 6.8 | – | – |

Now from value to compound:

| chromatographic logD (physchem) | CLH [1] | CLH [2] | Structure (SMILES) |
| --- | --- | --- | --- |
| 6.17 | – | – | CCC1(c2ccc(Br)cc2)NC(=O)N(CC(=O)c2ccc(F)cc2F)C1=O (stereo unspecified) |
| 4.96 | – | – | COc1cccc(C2(C)NC(=O)N(CC(=O)c3ccc(F)cc3F)C2=O)c1 (stereo unspecified) |
| 5.68 | < 0.4 mL/min/g | 1.48 mL/min/g | CC1(c2ccc(Br)cc2)NC(=O)N(CC(=O)c2ccc(F)cc2F)C1=O (stereo unspecified) |
| 5.72 | – | – | CC1(c2cccc(Br)c2)NC(=O)N(CC(=O)c2ccc(F)cc2F)C1=O (stereo unspecified) |
| 4.45 | – | – | CC1(c2ccc(OC(F)F)cc2)NC(=O)N(CC(=O)c2nccs2)C1=O (stereo unspecified) |
| 4.47 | – | – | COc1cc(C2(C)NC(=O)N(CC(=O)c3ccc(F)cc3F)C2=O)cc(OC)c1OC (stereo unspecified) |
| 3.57 | 0.47 mL/min/g | 3.29 mL/min/g | CC1(c2ccc(NS(C)(=O)=O)cc2)NC(=O)N(CC(=O)c2ccc(F)cc2F)C1=O (stereo unspecified) |
| 4.54 | 0.49 mL/min/g | 3.52 mL/min/g | CC1(c2ccc(C#N)cc2)NC(=O)N(CC(=O)c2ccc(F)cc2F)C1=O (stereo unspecified) |
| 5.43 | – | – | CCOc1ccc(C2(C)NC(=O)N(CC(=O)c3ccc(F)cc3F)C2=O)cc1 (stereo unspecified) |
| 3.94 | < 0.4 mL/min/g | 3.54 mL/min/g | CC1(c2ccc(N3CCOC3=O)cc2)NC(=O)N(CC(=O)c2ccc(F)cc2F)C1=O (stereo unspecified) |
| 5.23 | – | – | CC1(c2ccc(OC(F)F)cc2)NC(=O)N(CC(=O)c2ccccc2F)C1=O (stereo unspecified) |
| 3.96 | – | – | COc1ccc(C2(C)NC(=O)N(CC(O)c3ccc(F)cc3F)C2=O)cc1 (stereo unspecified) |
| 4.58 | – | – | N#Cc1ccc(-c2cn(CC(=O)c3ccc(F)cc3F)cn2)cc1 |
| 6.31 | – | – | CC1(c2ccc(C#N)cc2)NC(=O)N(CC(=O)C23CC4CC(CC(C4)C2)C3)C1=O (stereo unspecified) |
| 5.3 | – | – | CC1(c2ccc(C#N)cc2)NC(=O)N(CC(=O)c2cccc(C(F)(F)F)c2)C1=O (stereo unspecified) |
| 4.26 | – | – | CC1(c2ccc(C#N)cc2)NC(=O)N(CC(=O)c2ccc(F)cc2)C1=O (stereo unspecified) |
| 4.45 | – | – | CC1(c2ccc(N3CCOCC3)cc2)NC(=O)N(CC(=O)c2ccc(F)cc2F)C1=O (stereo unspecified) |
| 5.68 | – | – | CC1(c2ccc(Cl)cc2)NC(=O)N(CCc2ccc(F)cc2)C1=O (stereo unspecified) |
| 5.22 | – | – | CN1C(=O)N(CC(=O)c2ccc(F)cc2F)C(=O)C1(C)c1ccc(C#N)cc1 (stereo unspecified) |
| 4.78 | – | – | COc1ccc(C2(C)NC(=O)N(CC(=O)c3ccc(F)cc3F)C2=O)cc1 (stereo unspecified) |
| 4.53 | – | – | COc1ccc(C2(C)NC(=O)N(CC(=O)c3ccc(F)cc3)C2=O)cc1 (stereo unspecified) |
| 3.54 | – | – | CC1(c2ccc(OC(F)F)cc2)NC(=O)N(CC(=O)c2cccnc2)C1=O (stereo unspecified) |
| 4.39 | – | – | COc1cccc(C(=O)CN2C(=O)NC(C)(c3ccc(C#N)cc3)C2=O)c1 (stereo unspecified) |
| 4.45 | – | – | COc1ccccc1C(=O)CN1C(=O)NC(C)(c2ccc(C#N)cc2)C1=O (stereo unspecified) |

| chromatographic logD (physchem) | CLH [1] | CLH [2] | Structure (SMILES) |
| --- | --- | --- | --- |
| 5.42 | – | – | COc1ccc(F)cc1C(=O)CN1C(=O)NC(C)(c2ccc(OC(F)F)cc2)C1=O (stereo unspecified) |
| 5.13 | – | – | CC1(c2ccc(OC(F)F)cc2)NC(=O)N(CC(=O)c2cccc(F)c2)C1=O (stereo unspecified) |
| 4.84 | – | – | COc1ccc(C2(C)NC(=O)N(CCc3ccc(F)cc3)C2=O)cc1 (stereo unspecified) |
| 5.03 | – | – | COc1ccc(C(=O)CN2C(=O)NC(C)(c3ccc(OC(F)F)cc3)C2=O)cc1F (stereo unspecified) |
| 5.07 | – | – | CC1(c2ccc(C#N)cc2)NC(=O)N(CC(=O)C2CCCCC2)C1=O (stereo unspecified) |
| 4.25 | – | – | CC1(c2ccc(C#N)cc2)NC(=O)N(CC(=O)c2cccc([N+](=O)[O-])c2)C1=O (stereo unspecified) |
| 4.84 | – | – | COc1ccc(C2(C)NC(=O)N(CC(=O)c3ccc(F)cc3F)C2=O)cc1F (stereo unspecified) |
| 3.04 | – | – | CC1(c2ccncc2)NC(=O)N(CC(=O)c2ccc(F)cc2F)C1=O (stereo unspecified) |
| 3.37 | – | – | CC1(c2ccc(OC(F)F)cc2)NC(=O)N(CC(=O)N2CCCC2)C1=O (stereo unspecified) |
| 5.08 | – | – | CC1(c2ccc(OC(F)F)cc2)NC(=O)N(CC(=O)c2ccc(F)cc2)C1=O (stereo unspecified) |
| 4.9 | – | – | CC1(c2ccc(OC(F)F)cc2)NC(=O)N(CC(=O)c2ccc3c(c2)OCO3)C1=O (stereo unspecified) |
| 4.21 | – | – | CC1(c2ccc(C#N)cc2)NC(=O)N(CC2(c3ccc(F)cc3F)COC2)C1=O (stereo unspecified) |
| 4.25 | – | – | COc1ccc(C(=O)CN2C(=O)NC(C)(c3ccc(C#N)cc3)C2=O)cc1 (stereo unspecified) |
| 5.54 | – | – | CC1(c2ccc(Cl)cc2)NC(=O)N(CC(=O)c2ccc(F)cc2F)C1=O (stereo unspecified) |
| 3.97 | – | – | CC1(c2ccc(C#N)cn2)NC(=O)N(CC(=O)c2ccc(F)cc2F)C1=O (stereo unspecified) |
| 4.5 | – | – | CC1(c2ccc(C#N)cc2)NC(=O)N(Cc2ccc(F)cc2)C1=O (stereo unspecified) |
| 5.8 | – | – | CC1(c2ccc(Br)cc2F)NC(=O)N(CC(=O)c2ccc(F)cc2F)C1=O (stereo unspecified) |
| 4.33 | – | – | CC1(c2ccc(C#N)cc2)NC(=O)N(C2Cc3cc(F)cc(F)c3C2=O)C1=O (stereo unspecified) |
| 5.1 | – | – | CC1(c2ccc(C#N)cc2)NC(=O)N(CC(F)(F)c2ccc(F)cc2F)C1=O (stereo unspecified) |
| 4.4 | – | – | CC1(c2ccc(C#N)cc2)NC(=O)N(CCC(=O)c2ccc(F)cc2)C1=O (stereo unspecified) |
| 3.38 | – | – | CC1(c2ccc(N)cc2)NC(=O)N(CC(=O)c2ccc(F)cc2F)C1=O (stereo unspecified) |
| 4.56 | – | – | CC1(c2ccc(C#N)cc2)NC(=O)N(CCc2ccc(F)cc2)C1=O (stereo unspecified) |
| 6.64 | – | – | CCCC1(c2ccc(Br)cc2)NC(=O)N(CC(=O)c2ccc(F)cc2F)C1=O (stereo unspecified) |
